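Tested at 5 concentrations; 48 h exposure; 96-well plates; endpoints linearly interpolated, else capped at highest concentration. GI50 is the concentration that inhibits growth by half. TGI marks complete inhibition of growth.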
System: MDA-MB-468 breast
Experiment: growth of human tumour cells (NCI), 48 h

SMILES	GI50 [µM]	TGI [µM]
COc1cc(S(C)(=O)=O)ccc1Nc1nc2ccc(-c3ccc(NC(=O)[C@H](C)c4ccc(F)cc4)cc3)cn2n1	68.6	> 100
COc1cc(Cn2c(-c3nonc3N)nc3ccccc32)ccc1C	0.228	
CCOc1c(Cl)cc(CNC(C)C(O)c2ccccc2)cc1OC (centres undefined)	16.7	33.2
COc1ccc(C2CC(n3nnnc3-c3ccccc3)=NN2)cc1 (centres undefined)	3.98	47.6
CCn1c2ccc(/C=N/OCCCN(C)C)cc2c2cc(/C=N/OCCCN(C)C)ccc21	1.38	3.05
CSc1ccc(/C=C2\C=C(CC(=O)NCc3ccc(C(=O)c4ccccc4)cc3)c3cc(F)ccc32)cc1	0.0199	7.4
CCN(CCNc1ccc(C)c2sc3ccccc3c(=O)c12)CC(C)(C)O	1.74	5.03
O=C1CC(=O)OC(c2ccc([N+](=O)[O-])cc2)O1	1.67	3.48
COc1ccc(C(=O)N2c3ccccc3Sc3ccccc32)c(C(F)(F)F)c1	0.364	41.5
COC(=O)CCCCCN=Cc1c(O)c(O)c(C(C)C)c2cc(C)c(-c3c(C)cc4c(C(C)C)c(O)c(O)c(C=NCCCCCC(=O)OC)c4c3O)c(O)c12	1.97	12.9
COc1ccc(-c2cn[nH]c2-c2cc(OC)c3c(c2)OCCO3)cc1	0.115	2.76
Cc1c2ccc(N(C)c3ccnc(Nc4cccc(S(N)(=O)=O)c4)n3)cc2nn1C	8.21	> 23.5
CC(=O)Nc1ccc(NC(=O)Nc2cccc(-c3nc(-c4ccc(NC(=O)c5cccs5)cc4Cl)no3)c2)cc1C(F)(F)F	0.449	1.73
CCN(CC)CCCC(C)Nc1c2ccc(C)cc2nc2ccc(OC)cc12 (centres undefined)	1.28	2.84
Cc1cc(N/N=C/c2nc(-c3ccc(Cl)cc3)oc2C)c2cc(Cl)ccc2n1	1.78	3.55
Cc1cc(-c2nnc3n2CCCCC3)c(C)n1-c1ccc(Cl)c(Cl)c1	2.66	14
COc1ccc(CN2c3ccccc3CCc3ccccc32)cc1F	0.399	> 100
C/C(=N\NC(N)=S)c1nc2ccc(Cl)cc2[nH]1	1.97	19.1
CC(C)[C@H]1C(=O)N[C@@H](CCCN=C(N)N)C(=O)NCC(=O)N[C@@H](CC(=O)O)C(=O)N[C@H](Cc2ccccc2)C(=O)N1C	0.403	2.18
CCC(c1cccc(O)c1)C(CC)c1cccc(O)c1 (centres undefined)	0.028	4.37
O=C1CCCN1CC#CCN1CCCC1	> 100	> 100
C=C(C)C(=O)O[C@H]1C[C@@]2(C)OC(=CC2=O)/C(C)=C\[C@H]2OC(=O)C(=C)[C@H]12	0.622	1.56
COC(=O)CCC1=C(C)/C(=C/c2[nH]c(-c3ccc[nH]3)cc2OC)N=C1C	1.14	3.18
Cn1cc(CNCC2CCN(c3ncc(C(=O)NO)cn3)CC2)c2ccccc21	< 0.01	0.476
CC1=C2C(=O)[C@](C)(CO)C=C2C(=O)[C@](C)(O)C12CC2	1.52	3.16

Source: PubChem BioAssay (NCI)
